The target of assay [1] is T1, human orexin-2 receptor (Homo sapiens, UniProt O43614).
T1 construct: expressed in transfected cells; host or cells: Chinese hamster ovary (CHO) cells
T1 sequence (O43614 1-444): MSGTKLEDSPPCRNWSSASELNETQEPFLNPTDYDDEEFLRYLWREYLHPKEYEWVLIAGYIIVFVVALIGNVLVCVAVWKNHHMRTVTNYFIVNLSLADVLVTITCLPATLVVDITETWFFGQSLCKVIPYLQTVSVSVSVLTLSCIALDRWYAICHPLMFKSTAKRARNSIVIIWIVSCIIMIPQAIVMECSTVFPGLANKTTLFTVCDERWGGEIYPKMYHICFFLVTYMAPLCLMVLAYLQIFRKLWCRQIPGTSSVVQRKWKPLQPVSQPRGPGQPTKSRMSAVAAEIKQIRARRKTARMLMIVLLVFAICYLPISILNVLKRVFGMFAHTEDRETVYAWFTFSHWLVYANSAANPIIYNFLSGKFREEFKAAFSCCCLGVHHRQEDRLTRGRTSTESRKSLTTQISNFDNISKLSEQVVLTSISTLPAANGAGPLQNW
Nature of the assay: FLIPR calcium assay of orexin receptor antagonistic activity, CHO cells expressing human orexin-2 receptor. Type of assay: cell-based. The following applies: read-out: OX2 IC50. How it is done:
(§1) The orexin receptor antagonistic activity of the compounds of formula (I) is determined in accordance with the following experimental method.
(§2) Chinese hamster ovary (CHO) cells expressing the human orexin-1 receptor and the human orexin-2 receptor, respectively, are grown in culture medium (Ham F-12 with L-Glutamine) containing 300 μg/ml G418, […] penicillin, 100 μg/ml streptomycin and 10% heat inactivated fetal calf serum (FCS). The cells are seeded at 20′000 cells/well into 384-well black clear bottom sterile plates (Greiner). The seeded plates are incubated overnight at 37° C. in 5% CO2.
(§3) Human orexin-A as an agonist is prepared as 1 mM stock solution in MeOH:water (1:1), diluted in HBSS containing 0.1% bovine serum albumin (BSA), NaHCO3: 0.375 g/l and 20 mM HEPES for use in the assay at a final concentration of 3 nM.
(§4) Antagonists are prepared as 10 mM stock solution in DMSO, then diluted in 384-well plates using DMSO followed by a transfer of the dilutions into in HBSS containing 0.1% bovine serum albumin (BSA), NaHCO3: 0.375 g/l and 20 mM HEPES. On the day of the assay, 50 μl of staining buffer (HBSS containing 1% FCS, 20 mM HEPES, NaHCO3: 0.375 g/l, 5 mM probenecid (Sigma) and 3 μM of the fluorescent calcium indicator fluo-4 AM (1 mM stock solution in DMSO, containing 10% pluronic) is added to each well. The 384-well cell-plates are incubated for 50 min at 37° C. in 5% CO2 followed by equilibration at rt for 30-120 min before measurement.
(§5) Within the Fluorescent Imaging Plate Reader (FLIPR Tetra, Molecular Devices), antagonists are added to the plate in a volume of 10 μl/well, incubated for 10 min and finally […] of agonist is added. Fluorescence is measured for each well at 1 second intervals, and the height of each fluorescence peak is compared to the height of the fluorescence peak induced by 3 nM orexin-A with vehicle in place of antagonist. For each antagonist, the IC50 value (the concentration of compound needed to inhibit 50% of the agonistic response) is determined and may be normalized using the obtained IC50 value of a on-plate reference compound (normalized values in Table 1 are indicated by an asterisk *). Optimized conditions were achieved by adjustment of pipetting speed and cell splitting regime. The calculated IC50 values of the compounds may fluctuate depending on the daily cellular assay performance. Fluctuations of this kind are known to those skilled in the art.

For assay [2], the target named is T2, human orexin-1 receptor (Homo sapiens, UniProt O43613).
T2 construct: expressed in transfected cells; host or cells: Chinese hamster ovary (CHO) cells
T2 sequence (O43613 1-425): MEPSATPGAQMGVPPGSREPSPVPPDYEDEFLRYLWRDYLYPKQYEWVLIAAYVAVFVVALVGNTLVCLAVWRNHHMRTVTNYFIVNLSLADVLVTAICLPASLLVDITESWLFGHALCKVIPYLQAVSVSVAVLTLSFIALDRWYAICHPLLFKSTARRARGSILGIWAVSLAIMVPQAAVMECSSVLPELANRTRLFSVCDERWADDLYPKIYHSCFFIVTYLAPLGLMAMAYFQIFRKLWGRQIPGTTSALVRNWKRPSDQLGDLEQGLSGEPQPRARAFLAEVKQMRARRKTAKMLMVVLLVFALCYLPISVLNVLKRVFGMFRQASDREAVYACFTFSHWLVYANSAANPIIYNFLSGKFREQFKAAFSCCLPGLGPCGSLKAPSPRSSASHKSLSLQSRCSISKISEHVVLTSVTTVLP
Nature of the assay: FLIPR calcium assay of orexin receptor antagonistic activity, CHO cells expressing human orexin-1 receptor. The following applies: 3 nM orexin-A as agonist; not normalized; *2/*3 = geometric mean of n = 2/3 values; read-out: OX1 IC50. In kind it is cell-based. How it is done:
as §1, §2, §3, §4, §5

The mark [3] stands for this setting: 3 nM orexin-A as agonist, not normalized, *2/*3 = geometric mean of n = 2/3 values.

SMILES strings stand for the structures. Read-outs that look alike come from different tables or passages of the source.

In general, IC50 refers to the concentration at which inhibition is half-maximal. As to `Cc1cccc(-c2sc(C)nc2C(=O)N2CCSC2CNC(=O)c2ccn3ccsc23)c1` (racemic) [Example 4, rac-Pyrrolo[2,1-b]thiazole-7-carboxylic acid [3-(2-methyl-5-m-tolyl-thiazole-4-carbonyl)-thiazolidin-2-ylmethyl]-amide], the 50% inhibitory concentration (IC50) in assay [1] (setting [3]) and in assay [2] was 2 nM each time.
As for `Cc1cccc(-c2sc(C)nc2C(=O)N2CCSC2CNC(=O)c2ccc(C(F)(F)F)c3oc(C)cc23)c1` (racemic) [Example 11, rac-2-Methyl-7-trifluoromethyl-benzofuran-4-carboxylic acid [3-(2-methyl-5-m-tolyl-thiazole-4-carbonyl)-thiazolidin-2-ylmethyl]-amide], the IC50 in assay [1] (setting [3]) was 63 nM; in assay [2], 17 nM.
For `Cc1cccc(-c2sc(C)nc2C(=O)N2CCSC2CNC(=O)c2cccc3ocnc23)c1` (racemic) [Example 17, rac-Benzooxazole-4-carboxylic acid [3-(2-methyl-5-m-tolyl-thiazole-4-carbonyl)thiazolidin-2-ylmethyl]-amide], the IC50 turned out to be 6 nM in assay [1] (setting [3]) and 4 nM in assay [2].
Regarding `Cc1nc(-c2cccc(Cl)c2)c(C(=O)N2CCSC2CNC(=O)c2cccc3c2CCO3)s1` (racemic) [Example 29, rac-2,3-Dihydro-benzofuran-4-carboxylic acid {3-[4-(3-chloro-phenyl)-2-methyl-thiazole-5-carbonyl]-thiazolidin-2-ylmethyl}-amide], the 50% inhibitory concentration (IC50) in assay [1] (setting [3]) was 7 nM; in assay [2], 3 nM.
In the case of `COc1cccc(-c2nc(C)sc2C(=O)N2CCSC2CNC(=O)c2cccc3c2CCO3)c1` (racemic) [Example 32, rac-2,3-Dihydro-benzofuran-4-carboxylic acid {3-[4-(3-methoxy-phenyl)-2-methyl-thiazole-5-carbonyl]-thiazolidin-2-ylmethyl}-amide], the IC50 in assay [1] (setting [3]) amounted to 5 nM; in assay [2], 4 nM.
Regarding `Cc1nc(-c2ccc(F)cc2)c(C(=O)N2CCSC2CNC(=O)c2nn(C)c3ccccc23)s1` (racemic) [Example 39, rac-1-Methyl-1H-indazole-3-carboxylic acid {3-[4-(4-fluoro-phenyl)-2-methyl-thiazole-5-carbonyl]-thiazolidin-2-ylmethyl}-amide], the IC50 in assay [1] (setting [3]) was found to be 86 nM; in assay [2] it was 8 nM.
In the case of `Cc1ccc(-c2nc(C)sc2C(=O)N2CCSC2CNC(=O)c2cccc3c2OCCO3)cc1` (racemic) [Example 42, rac-2,3-Dihydro-benzo[1,4]dioxine-5-carboxylic acid [3-(2-methyl-4-p-tolyl-thiazole-5-carbonyl)-thiazolidin-2-ylmethyl]-amide], the IC50 was found to be 31 nM in assay [1] (setting [3]) and 10 nM in assay [2].
As for `Cc1nc(-c2cccc(C(F)(F)F)c2)c(C(=O)N2CCSC2CNC(=O)c2nn(C)c3ccccc23)s1` (racemic) [Example 50, rac-1-Methyl-1H-indazole-3-carboxylic acid {3-[2-methyl-4-(3-trifluoromethyl-phenyl)-thiazole-5-carbonyl]-thiazolidin-2-ylmethyl}-amide], the IC50 in assay [1] (setting [3]) came to 43 nM; in assay [2], 7 nM.
For the compound `Cc1nc(C(=O)N2CCSC2CNC(=O)c2cccc3c2OCCO3)c(-c2ccccc2)s1` (racemic) [Example 57, rac-2,3-Dihydro-benzo[1,4]dioxine-5-carboxylic acid [3-(2-methyl-5-phenyl-thiazole-4-carbonyl)-thiazolidin-2-ylmethyl]-amide], the IC50 came out at 10 nM in assay [1] (setting [3]) and 4 nM in assay [2].
For `Cc1nc(C(=O)N2CCSC2CNC(=O)c2nn(C)c3ccccc23)c(-c2ccc(C(F)(F)F)cc2)s1` (racemic) [Example 61, rac-1-Methyl-1H-indazole-3-carboxylic acid {3-[2-methyl-5-(4-trifluoromethyl-phenyl)-thiazole-4-carbonyl]-thiazolidin-2-ylmethyl}-amide], in that order: 28 nM and 16 nM.
Regarding `Cc1ccc(-c2ccccc2C(=O)N2CCSC2CNC(=O)c2cccc3ncsc23)cc1C` (racemic) [Example 72, rac-Benzothiazole-7-carboxylic acid [3-(3′,4′-dimethyl-biphenyl-2-carbonyl)-thiazolidin-2-ylmethyl]-amide], the IC50 in assay [1] (setting [3]) is 10 nM; in assay [2], 12 nM.
Regarding `Cc1nc(C(=O)N2CCSC2CNC(=O)c2cccc3c2CCO3)c(-c2ccc(F)cc2)s1` (racemic) [Example 77, rac-2,3-Dihydro-benzofuran-4-carboxylic acid {3-[5-(4-fluoro-phenyl)-2-methyl-thiazole-4-carbonyl]-thiazolidin-2-ylmethyl}-amide], the IC50 in assay [1] (setting [3]) and in assay [2] was 4 nM throughout.
`Cc1cccc(-c2oc(C)nc2C(=O)N2CCSC2CNC(=O)c2cccc3ncsc23)c1` (racemic) [Example 83, rac-Benzothiazole-7-carboxylic acid [3-(2-methyl-5-m-tolyl-oxazole-4-carbonyl)-thiazolidin-2-ylmethyl]-amide]: the values for the IC50 in assay [1] (setting [3]) and in assay [2] were 11 nM and 14 nM, respectively.
For `Cc1nc(C(=O)N2CCSC2CNC(=O)c2cccc3ncsc23)c(-c2ccccc2)o1` (racemic) [Example 88, rac-Benzothiazole-7-carboxylic acid [3-(2-methyl-5-phenyl-oxazole-4-carbonyl)-thiazolidin-2-ylmethyl]-amide], in that order: 7 nM and 4 nM.
Regarding `Cc1nc(C(=O)N2CCSC2CNC(=O)c2cccc3c2OCCO3)c(-c2cccc(F)c2)o1` (racemic) [Example 95, rac-2,3-Dihydro-benzo[1,4]dioxine-5-carboxylic acid {3-[5-(3-fluoro-phenyl)-2-methyl-oxazole-4-carbonyl]-thiazolidin-2-ylmethyl}-amide], the figures for the IC50 in assay [1] (setting [3]) and in assay [2] were 68 nM and 23 nM, respectively.
For `COc1cccc(-c2oc(C)nc2C(=O)N2CCSC2CNC(=O)c2cccc3ncsc23)c1` (racemic) [Example 104, rac-Benzothiazole-7-carboxylic acid {3-[5-(3-methoxy-phenyl)-2-methyl-oxazole-4-carbonyl]-thiazolidin-2-ylmethyl}-amide], the IC50 is 8 nM in assay [1] (setting [3]) and 7 nM in assay [2].
For the compound `Cc1cccc(-c2sccc2C(=O)N2CCSC2CNC(=O)c2cccc3ncsc23)c1` (racemic) [Example 109, rac-Benzothiazole-7-carboxylic acid [3-(2-m-tolyl-thiophene-3-carbonyl)-thiazolidin-2-ylmethyl]-amide], the IC50 in assay [1] (setting [3]) is 10 nM; in assay [2], 7 nM.
Consider `COc1cccc(-c2nccnc2C(=O)N2CCSC2CNC(=O)c2cccc3ncsc23)c1` (racemic) [Example 196, rac-Benzothiazole-7-carboxylic acid {3-[3-(3-methoxy-phenyl)-pyrazine-2-carbonyl]-thiazolidin-2-ylmethyl}-amide], for which the IC50 in assay [1] is 3 nM.
